Assay results from paper PMC8010720 (bioRxiv, 2021).
“Also recorded” adds a separate entry of the source. Like-named read-outs stand apart in the source and are kept apart here.

Assays:
[1] = test system: SARS-CoV-2 infected A549-ACE2 cells; format: cell-based
SARS-CoV-2 [2] = experiment: Cellular antiviral assays against SARS-CoV-2; format: cell-based
SARS-CoV-2 [3] = settings: for effect on lung viral titer / viral propagation in mice: in vivo
A549 cells = format: cell-based, human; settings: for induction of phospholipidosis: NBD-PE staining, A549 cells
human sigma-1 receptor = human sigma-1 receptor (Homo sapiens, UniProt Q99720); format: binding
human sigma-2 receptor = human sigma-2 receptor (Homo sapiens, UniProt Q5BJF2); settings: radioligand displacement, fractional binding at 1 μM (Fig. 2E)
Sequence of human sigma-2 receptor (Q5BJF2 whole entry): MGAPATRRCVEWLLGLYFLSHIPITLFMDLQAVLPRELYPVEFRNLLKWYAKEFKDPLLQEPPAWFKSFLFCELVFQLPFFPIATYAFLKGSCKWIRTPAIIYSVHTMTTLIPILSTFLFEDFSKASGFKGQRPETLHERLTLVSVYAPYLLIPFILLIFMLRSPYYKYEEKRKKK

Sequence of human sigma-1 receptor (Q99720 whole entry): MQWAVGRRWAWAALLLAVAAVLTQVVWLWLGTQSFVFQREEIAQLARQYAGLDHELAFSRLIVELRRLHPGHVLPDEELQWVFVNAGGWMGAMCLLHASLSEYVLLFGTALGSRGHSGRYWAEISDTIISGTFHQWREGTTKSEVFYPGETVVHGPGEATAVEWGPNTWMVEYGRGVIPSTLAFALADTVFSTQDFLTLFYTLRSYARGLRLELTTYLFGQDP

For `CCCCc1oc2ccccc2c1C(=O)c1cc(I)c(OCCN(CC)CC)c(I)c1` [Amiodarone], the “NBD-PE aggregates vs DMSO” value [1] was “substantial increases in NBD-PE aggregates”, the “antiviral activity against SARS-CoV-2 in cells” value (“antiviral activity” below) (SARS-CoV-2 [2]) was “mid-to high-nM activities against viral replication” and the “effect on lung viral titer / viral propagation in mice” value (SARS-CoV-2 [3]) was “no substantial effect on viral propagation”.

With `CC[C@H]1OC(=O)[C@H](C)[C@@H](O[C@H]2C[C@@](C)(OC)[C@@H](O)[C@H](C)O2)[C@H](C)[C@@H](O[C@@H]2O[C@H](C)C[C@H](N(C)C)[C@H]2O)[C@](C)(O)C[C@@H](C)CN(C)[C@H](C)[C@@H](O)[C@]1(C)O` [Azithromycin] the “induction of phospholipidosis” value (A549 cells) was “confirmed phospholipidosis-inducing activity”.

With `COc1cc2nc(N3CCCN(C)CC3)nc(NC3CCN(Cc4ccccc4)CC3)c2cc1OC` [Bix 01294] the “induction of phospholipidosis” value (A549 cells) was “confirmed phospholipidosis-inducing activity”, the “NBD-PE aggregates vs DMSO” value [1] was “substantial increases in NBD-PE aggregates” and the “SARS-CoV-2 spike protein signal” value [1] was “nearly complete loss of spike protein signal”.

In the case of `CN1CCC[C@@H]1CCO[C@](C)(c1ccccc1)c1ccc(Cl)cc1` [Clemastine], the “phospholipidosis (DIPL)” value (A549 cells) is reported as > 50 % of amiodarone.

For `Cc1ccccc1NC(=N)Nc1ccccc1C` [DTG, ditolylguanidine], the “induction of phospholipidosis” value (A549 cells) was “did not induce phospholipidosis” and the “antiviral activity” value (SARS-CoV-2 [2]) was “not antiviral; also recorded: no measurable antiviral effects”.

In the case of `CNCC[C@H](Oc1cccc2ccccc12)c1cccs1` [Duloxetine], the phospholipidosis inducer class (A549 cells) is reported as “strong (key: > 50% of the strong phospholipidosis inducer amiodarone; medium: 50% > DIPL > 25% of amiodarone)”.

`CC(C)(C)c1ccc(C(=O)CCCN2CCC(OC(c3ccccc3)c3ccccc3)CC2)cc1` [Ebastine] was tested, and the “induction of phospholipidosis” value (A549 cells) was “confirmed phospholipidosis-inducing activity”.

With `COc1cc2c(cc1OC)CN(CCc1ccc(NC(=O)c3cccc4c(=O)c5cccc(OC)c5[nH]c34)cc1)CC2` [Elacridar] the “induction of phospholipidosis” value (A549 cells) was “non-phospholipidosis inducing”, the “effect on lung viral titer / viral propagation in mice” value (SARS-CoV-2 [3]) was “modest antiviral effect” and the “dose above which mice exhibited toxicities” value (SARS-CoV-2 [3]; mice, i.p. once per day) was “higher than 3 mg/kg”.

`Cc1c2ccncc2c(C)c2c1[nH]c1ccccc12` [Ellipticine] was tested, and the phospholipidosis inducer class (A549 cells; DIPL relative to amiodarone) was “medium (key: > 50% of the strong phospholipidosis inducer amiodarone; medium: 50% > DIPL > 25% of amiodarone)” and the “induction of phospholipidosis” value (A549 cells) was “confirmed phospholipidosis-inducing activity”.

With `O=C1NCN(c2ccccc2)C12CCN(CCCC(c1ccc(F)cc1)c1ccc(F)cc1)CC2` [Fluspirilene] the phospholipidosis inducer class (A549 cells; DIPL relative to amiodarone) was “medium (key: > 50% of the strong phospholipidosis inducer amiodarone; medium: 50% > DIPL > 25% of amiodarone)”.

For `CCN(CCO)CCCC(C)Nc1ccnc2cc(Cl)ccc12` (stereo not shown) [Hydroxychloroquine], the “NBD-PE aggregates vs DMSO” value [1] was “substantial increases in NBD-PE aggregates”.

In the case of `CC1CCN(CCCC(=O)c2ccc(F)cc2)CC1` [Melperone], the “induction of phospholipidosis” value (A549 cells) is reported as “did not induce phospholipidosis; also recorded: non-phospholipidosis inducing” and the “antiviral activity” value (SARS-CoV-2 [2]) is reported as “not antiviral; also recorded: no measurable antiviral effects”.

In the case of `CN1CCC(CN2c3ccccc3Sc3ccccc32)C1` (stereo not shown) [Methdilazine], the phospholipidosis inducer class (A549 cells; DIPL relative to amiodarone) is reported as “medium (key: > 50% of the strong phospholipidosis inducer amiodarone; medium: 50% > DIPL > 25% of amiodarone)”.

With `Cc1cc2c(s1)Nc1ccccc1N=C2N1CCN(C)CC1` [Olanzapine] the phospholipidosis inducer class (A549 cells; DIPL relative to amiodarone) was “medium (key: > 50% of the strong phospholipidosis inducer amiodarone; medium: 50% > DIPL > 25% of amiodarone)” and the “induction of phospholipidosis” value (A549 cells) was “did induce phospholipidosis”.

With `COc1cccc2c1CCCC2CCCN1CCN(C2CCCCC2)CC1` (stereo not shown) [PB28] the “sigma-1 binding” value (human sigma-1 receptor) was “strong ligand of both sigma-1 and sigma-2”, the “sigma-2 binding” value (human sigma-2 receptor) was “strong ligand of both sigma-1 and sigma-2” and the “induction of phospholipidosis” value (A549 cells) was “both induce phospholipidosis”. The “NBD-PE aggregates vs DMSO” value [1] was “substantial increases in NBD-PE aggregates” and the “effect on lung viral titer / viral propagation in mice” value (SARS-CoV-2 [3]) was “no substantial effect on viral propagation”.

With `CN[C@H]1CC[C@@H](c2ccc(Cl)c(Cl)c2)c2ccccc21` [Sertraline] the “phospholipidosis (DIPL)” value (A549 cells) was > 50 % of amiodarone, the “NBD-PE aggregates vs DMSO” value [1] was “substantial increases in NBD-PE aggregates” and the “antiviral activity” value (SARS-CoV-2 [2]) was “mid-to high-nM activities against viral replication”. The “effect on lung viral titer / viral propagation in mice” value (SARS-CoV-2 [3]) was “no substantial effect on viral propagation”.

In the case of `CC/C(=C(\c1ccccc1)c1ccc(OCCN(C)C)cc1)c1ccccc1` [Tamoxifen], the “antiviral activity” value (SARS-CoV-2 [2]) is reported as “mid-to high-nM activities against viral replication” and the “effect on lung viral titer / viral propagation in mice” value (SARS-CoV-2 [3]) is reported as “no substantial effect on viral propagation”.

For `CCSc1ccc2c(c1)N(CCCN1CCN(C)CC1)c1ccccc1S2` [Thiethylperazine], the phospholipidosis inducer class (A549 cells; DIPL relative to amiodarone) was “medium (key: > 50% of the strong phospholipidosis inducer amiodarone; medium: 50% > DIPL > 25% of amiodarone)”.

With `CN(C)CCOc1ccc(/C(=C(/CCCl)c2ccccc2)c2ccccc2)cc1` [Toremifene] the phospholipidosis inducer class (A549 cells; DIPL relative to amiodarone) was “strong (key: > 50% of the strong phospholipidosis inducer amiodarone; medium: 50% > DIPL > 25% of amiodarone)”.
